From ChEMBL document CHEMBL1201862, “PubChem BioAssay data set” (2004)
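Results reflect a 48-hour exposure of cells in 96-well plates to compound at five concentrations. At the GI50, growth is halved.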 Active and inactive are the calls of the source. Rule as the data show it: active = GI50 up to about 1.1 µM and inactive = higher.

Columns and labels:
Test in all cases: NCI anticancer screen, dose series, 48 h
[1] = system: BT-549
[2] = system: DMS-273
[3] = system: M19-MEL
[4] = system: DMS-114
[5] = system: LXFL 529
[6] = system: SNB-78
[7] = system: RXF 631
[8] = system: KM-20L2
[9] = system: XF498

O=C(Nc1ccc2oc(=O)c(C(=O)O)cc2c1)Oc1ccccc1
GI50 [1]: > 100 µM (inactive)

CC(C)(C)c1ccc(-c2nnc(SCc3ccc(Cl)cc3)n2-c2cccc(C(F)(F)F)c2)cc1
GI50 [1]: > 93.3 µM (inactive)

CC1(C)CN=C(Nc2ccc(F)c(Cl)c2)S1
GI50 [1]: > 100 µM (inactive)

CCN(CC)/C(Sc1ccccc1)=C(\C(Cl)=C(Cl)Cl)[N+](=O)[O-]
GI50 [1]: 15.8 µM (inactive)

Cc1ccc(C(=O)Nc2ccc(CP(=O)(O)O)cc2CP(=O)(O)O)cc1NC(=O)Nc1cc(C(=O)Nc2ccc(CP(=O)(O)O)cc2CP(=O)(O)O)ccc1C
GI50 [1]: > 100 µM (inactive)

Cc1ccc(-c2cc(-c3ccccc3)c(C#N)c(=O)[nH]2)cc1
GI50 [2]: > 100 µM (inactive) | GI50 [3]: > 100 µM (inactive) | GI50 [4]: > 100 µM (inactive) | GI50 [5]: > 100 µM (inactive) | GI50 [6]: > 100 µM (inactive) | GI50 [7]: > 100 µM (inactive) | GI50 [8]: > 100 µM (inactive)

Nc1nnc2oc3ccc4ccccc4c3cc1-2
GI50 [1]: 33.8 µM (inactive)

O=C1CCCC2=C1CC1=C(CCCC1=O)N2c1ccc([N+](=O)[O-])cc1
GI50 [1]: > 100 µM (inactive)

Cc1ccc(S(=O)(=O)OC(c2ccc(Cl)cc2Cl)C2OC(=O)c3ccccc32)cc1 (stereo unspecified)
GI50 [2]: 75.5 µM (inactive) | GI50 [3]: > 100 µM (inactive) | GI50 [4]: 45.8 µM (inactive) | GI50 [9]: > 100 µM (inactive) | GI50 [5]: > 100 µM (inactive) | GI50 [6]: > 100 µM (inactive) | GI50 [8]: 32.7 µM (inactive)

CC/C(Cl)=N\OC(=O)Nc1ccc(OC)cc1
GI50 [1]: 1.6 µM (inactive)

CC(C)c1cccc(=O)c(O)c1
GI50 [2]: 4 µM (inactive) | GI50 [3]: 2.15 µM (inactive) | GI50 [4]: 2.24 µM (inactive) | GI50 [5]: 1.47 µM (inactive) | GI50 [6]: 2.1 µM (inactive) | GI50 [7]: 1.25 µM (inactive) | GI50 [8]: 2.85 µM (inactive)

CCOC(=O)c1ccc(Nc2nc3ccc(C(F)(F)F)cc3nc2C(=O)OCC)cc1
GI50 [1]: > 100 µM (inactive)

C=CC(O)C#Cc1cnc(OC)nc1OC (stereo unspecified)
GI50 [1]: > 100 µM (inactive)

CCOC(=O)C1NCCc2c1[nH]c1ccccc21 (stereo unspecified)
GI50 [1]: > 10 µM (inactive)

Cc1nc2c(C)c3c([nH]c4ccc(Cl)cc43)c(C)c2c(O)c1C
GI50 [2]: 9.02 µM (inactive) | GI50 [3]: 6.18 µM (inactive) | GI50 [4]: 19.8 µM (inactive) | GI50 [1]: 14.9 µM (inactive) | GI50 [9]: 43.2 µM (inactive) | GI50 [6]: > 100 µM (inactive)

CCOC(=O)C1(C#N)OC(=O)c2cnccc21 (stereo unspecified)
GI50 [1]: > 100 µM (inactive)

S=C(Nc1ccc2c(c1)oc1ccccc12)c1cccnc1
GI50 [1]: 37.1 µM (inactive)

Cn1cccc1/C=C/c1cc(Br)c(/C=C/c2cccn2C)cc1Br
GI50 [2]: 18.5 µM (inactive) | GI50 [3]: 18.4 µM (inactive) | GI50 [4]: 11.6 µM (inactive) | GI50 [5]: 12.3 µM (inactive) | GI50 [7]: 13.9 µM (inactive) | GI50 [8]: 16.3 µM (inactive)

O=[N+]([O-])c1ccc(O)c(/C=N/NC(=S)N2CCCCC2)c1
GI50 [1]: 6.14 µM (inactive)

N#CCc1c(-c2ccccc2)n(S(=O)(=O)c2ccccc2)c2ccccc12
GI50 [2]: > 100 µM (inactive) | GI50 [3]: > 100 µM (inactive) | GI50 [4]: 64.9 µM (inactive) | GI50 [9]: > 100 µM (inactive) | GI50 [5]: > 100 µM (inactive) | GI50 [8]: > 100 µM (inactive)

O=S(=O)(O)c1ccccc1/N=N\c1ccc(/N=N/c2c(O)ccc3ccccc23)c(S(=O)(=O)O)c1
GI50 [1]: > 100 µM (inactive)

COc1ccc(C(=O)C(C(=O)CCC(=O)Nc2cccc(Cl)c2)c2ccc(OC)cc2)cc1 (stereo unspecified)
GI50 [2]: > 100 µM (inactive) | GI50 [3]: > 100 µM (inactive) | GI50 [9]: > 100 µM (inactive) | GI50 [5]: > 100 µM (inactive) | GI50 [7]: > 100 µM (inactive) | GI50 [8]: > 100 µM (inactive)

C[n+]1cc2cc(O)c(O)cc2c2ccc3cc(O)c(O)cc3c21.c1ccncc1
GI50 [1]: 2.26 µM (inactive)

NNC(=S)N/N=C/C(Cl)=C(\Cl)C(=O)O
GI50 [2]: > 100 µM (inactive) | GI50 [3]: > 100 µM (inactive) | GI50 [4]: > 100 µM (inactive) | GI50 [9]: > 100 µM (inactive) | GI50 [5]: > 100 µM (inactive) | GI50 [6]: > 100 µM (inactive) | GI50 [8]: > 100 µM (inactive)

CN(C)c1ccc(/C=C2\C[C@H]3[C@@H]4CC=C5C[C@@H](O)CC[C@]5(C)[C@H]4CC[C@]3(C)C2=O)cc1
GI50 [1]: 53.5 µM (inactive)

CC(=O)NNC(=S)N/C=C1/C(=O)C=C(C)OC1=O
GI50 [1]: > 100 µM (inactive)

CC1CCC2CC1NC(=O)CCOCCC(=O)NC2(C)C (stereo unspecified)
GI50 [1]: > 100 µM (inactive)

C/C(CC(=O)Nc1ccc(C)cc1)=N\NC(N)=S
GI50 [3]: > 100 µM (inactive) | GI50 [4]: > 100 µM (inactive) | GI50 [9]: > 100 µM (inactive) | GI50 [5]: 72.3 µM (inactive) | GI50 [6]: > 100 µM (inactive) | GI50 [8]: > 100 µM (inactive)

CCOC(=O)c1cc2cc(CSc3ccccc3)ccc2oc1=O
GI50 [1]: > 100 µM (inactive)

COC1C=CC(C(=O)[N+]2=Cc3[nH]c4ccccc4c3CC2)O1 (stereo unspecified)
GI50 [2]: 82.2 µM (inactive) | GI50 [3]: > 100 µM (inactive) | GI50 [4]: 66.4 µM (inactive) | GI50 [5]: 98.2 µM (inactive) | GI50 [6]: > 100 µM (inactive) | GI50 [7]: > 100 µM (inactive) | GI50 [8]: > 100 µM (inactive)

CCOc1ccc(C2c3[nH]c4ccccc4c3CCN2C(=O)c2cccs2)cc1 (stereo unspecified)
GI50 [1]: 61.9 µM (inactive)
